Source: article PMC5120204, “Identification of an orally active small-molecule PTHR1 agonist for the treatment of hypoparathyroidism” (Nature Communications, 2016)
“Also recorded” adds a separate entry of the source.

Tests used:
OVX rats [1] = assay: Repeated administration study in OVX rats; format: in vivo, rat
Description: (§1) OVX was carried out in 32-week-old female Crl:CD (SD) rats (Charles River Laboratories). Twelve weeks after surgery, lumbar vertebral BMD (L3–L5) was measured in vivo by dual-energy X-ray absorptiometry (DXA) using a DCS-600EX-IIIR bone densitometer (Hitachi Aloka Medical), and the rats were divided into five groups, each with a similar mean value of BMD and body weight. Sample sizes were determined based on previous experiments with hPTHs and a published study with ibandronate and eldecalcitriol in our laboratories[42] (n=7–10). Then, OVX rats were treated once daily intravenously (vehicle or PCO371 at 3 or 10 mg kg^−1) or orally (vehicle or PCO371 at 30 mg kg^−1) or subcutaneously [vehicle or hPTH(1–34) at 0.9 nmol kg^−1] for 12 weeks. Ten to twelve OVX rats were assigned to each dose group. Nine rats were assigned to the sham-operated control group and were treated with vehicle for PCO371. Ten per cent DMSO (Wako Pure Chemical Industries)/10% Kolliphor EL (Sigma-Aldrich) in 10% hydroxypropyl-β-cyclodextrin (HPCD; Nihon Shokuhin Kako)/0.752% glycine (Wako Pure Chemical Industries) buffer was used as vehicle for PCO371, and phosphate-citrate buffer (pH 6.0) was used as vehicle for hPTH(1–34). To label bone-forming surfaces, tetracycline ([…], Nippon Zenyaku Kogyo) was subcutaneously injected on Day 78 and calcein (8 mg kg^−1, Dōjindo Laboratories) was subcutaneously injected on day 83. Under isoflurane anaesthesia, jugular vein blood was collected immediately before and at 1, 2, 6, 10 and 24 h after administration on day 82 to measure plasma concentration of PCO371 or on day 84 to measure serum Ca levels (o-CPC method, Wako Pure Chemical Industries). Urine was collected for 24 h from metabolic cages on days 84–85 to measure urinary collagen type 1 cross-linked C-telopeptide (CTX) by using the RatLaps ELISA System (Immunodiagnostic Systems). Under isoflurane anaesthesia, blood was collected on day 85 from the abdominal aorta to measure serum osteocalcin level by using the Rat Osteocalcin ELISA System (GE Healthcare). The lumbar spine and bilateral femurs were excised after 12 weeks of treatment. The first lumbar vertebra (L1), 3rd to 5th lumbar vertebrae (L3–L5), the right femur, and the right tibia were preserved in 70% ethanol to measure bone histomorphometry and BMD (DCS-600EX; Hitachi Aloka Medical). Measurement of bone histomorphometry was performed by the Ito Bone Histomorphometry Institute (Niigata, Japan). The second lumbar vertebra (L2) was wrapped in saline-soaked gauze and stored at −80 °C until measurement. Ultimate compressive strength (N) of the L2 vertebra was measured by using a mechanical testing machine (TK-252C; Muromachi Kikai).

[2] = tested on: 12 class B GPCRs (CGRP, calcitonin, CRF1, CRF2α, GLP-1, GLP-2, glucagon, secretin, GHRH, PAC1, VPAC1 and VPAC2); assay: Selectivity assay (Cerep), agonist and antagonist cAMP assays; format: cell-based; settings: at 1 or 10 μmol l^−1; activity defined as >25% of positive control
Description: Selectivity assays against class B GPCRs were performed by Cerep (France). Agonistic and antagonistic effects of PCO371 against a panel of 12 class B GPCRs (CGRP, calcitonin, CRF1, CRF2α, GLP-1, GLP-2, glucagon, secretin, GHRH, PAC1, VPAC1 and VPAC2) were examined at PCO371 concentrations of 1 and 10 μmol l^−1. The following cell lines were used; T47D (calcitonin), βTC6 (GLP-1), HT-29 (VPAC1, VPAC2), CHO (CGRP, CRF1, GLP-2, Glucagon, Secretin, GHRH and PAC1, recombinant), and HEK-293 (CRF-2, recombinant). Their antagonistic activity was measured in the presence of the control agonists shown in Supplementary Table 1. In agonist and antagonist experiments, intracellular cAMP levels were determined with the HTRF detection system. EC50 and IC50 values of control agonists or antagonists were calculated by non-linear regression analysis of the concentration-response curves generated with mean replicate values using Hill equation curve-fitting using the formula: equation (2).
Y=response, A=left asymptote of the curve, D=right asymptote of the curve, C=compound concentration, C50=EC50 or IC50, nH=slope factor. Agonistic activity of PCO371 at 1 or 10 μmol l^−1 was calculated as a per cent of the control agonist response; intracellular cAMP accumulation by PCO371 × 100/intracellular cAMP accumulation by the control agonist at the EC50 concentration. […]

OVX rats [3] = assay: Bone histomorphometry of lumbar vertebra in OVX rats; format: in vivo, rat
Description: as §1

[4] = daily oral 30 mg kg^−1, 12 weeks
[5] = i.v. 3 mg kg-1 once daily 12 weeks
[6] = i.v. 10 mg kg-1 once daily 12 weeks
[7] = p.o. 30 mg kg-1 once daily 12 weeks

**Q.** Which results are given for `Cc1cc(N2C(=O)NC(=O)C2(C)C)cc(C)c1CCS(=O)(=O)N1CCC2(CC1)N=C(c1ccc(OC(F)(F)F)cc1)NC2=O` [PCO371, 1-{3,5-dimethyl-4-[2-({4-oxo-2-[4-(trifluoromethoxy)phenyl]-1,3,8-triazaspiro[4.5]dec-1-en-8-yl}sulfonyl)ethyl]phenyl}-5,5-dimethylimidazolidine-2,4-dione]?
**A.** BMD or bone strength in the lumbar spine (OVX rats [1]; daily intravenous 3 mg kg^−1, 12 weeks): did not affect; BMD in the proximal femur (OVX rats [1]; [4]): partially increased; BMD in total femur (OVX rats [1]; [4]): not in total femur; BMD or bone strength in the lumbar spine (OVX rats [1]; [4]): did not affect; serum Ca (OVX rats [1]; day 84, all treated rats): within the normal range; serum osteocalcin and urinary CTX/creatinine (OVX rats [1]; intravenous 10 mg kg^−1, 12 weeks): significant increase; BMD and bone strength in the lumbar vertebrae (OVX rats [1]; once-daily intravenous 10 mg kg^−1, 12 weeks, vs vehicle): significant increase; serum osteocalcin and urinary CTX/creatinine (OVX rats [1]; oral 30 mg kg^−1, 12 weeks): significant increase; agonistic and antagonistic activities against 12 class B GPCRs [2]: did not show agonistic or antagonistic activity; also recorded: did not exhibit activity; BFR/BS (Bone formation rate/Bone surface) (OVX rats [3]; [5]): 0.144 ± 0.013 mm3 per mm2 per year; BRs.R (OVX rats [3]; [5]): 0.039 ± 0.005 mm2 per mm2 per year; BV/TV (Bone volume/Tissue volume) (OVX rats [3]; [5]): 23.2 ± 1.9%; ES/BS (Eroded surface/Bone surface) (OVX rats [3]; [5]): 27.6 ± 2.5%; MAR (Mineral apposition rate) (OVX rats [3]; [5]): 1.84 ± 0.07 µm per day; N.Ob/BS (Number of osteoblasts/Bone surface) (OVX rats [3]; [5]): 11.36 ± 0.71 N per mm; N.Oc/BS (Number of osteoclasts/Bone surface) (OVX rats [3]; [5]): 2.55 ± 0.22 N per mm; OV/TV (Osteoid volume/Tissue volume) (OVX rats [3]; [5]): 0.465 ± 0.040%; ObS/BS (Osteoblast surface/Bone surface) (OVX rats [3]; [5]): 14.98 ± 1.07%; OcS/BS (Osteoclast surface/Bone surface) (OVX rats [3]; [5]): 8.49 ± 0.79%; Tb. N (Trabecular number) (OVX rats [3]; [5]): 3.07 ± 0.18 N per mm; Tb. Sp (Trabecular separation) (OVX rats [3]; [5]): 264 ± 24 µm; Tb. Th (Trabecular thickness) (OVX rats [3]; [5]): 75.1 ± 4.1 µm; BFR/BS (Bone formation rate/Bone surface) (OVX rats [3]; [6]): 0.275 ± 0.022 mm3 per mm2 per year; BRs.R (OVX rats [3]; [6]): 0.071 ± 0.008 mm2 per mm2 per year; BV/TV (Bone volume/Tissue volume) (OVX rats [3]; [6]): 20.1 ± 1.1%; ES/BS (Eroded surface/Bone surface) (OVX rats [3]; [6]): 33.0 ± 1.6%; MAR (Mineral apposition rate) (OVX rats [3]; [6]): 2.22 ± 0.06 µm per day; N.Ob/BS (Number of osteoblasts/Bone surface) (OVX rats [3]; [6]): 16.09 ± 1.72 N per mm; N.Oc/BS (Number of osteoclasts/Bone surface) (OVX rats [3]; [6]): 3.60 ± 0.20 N per mm; OV/TV (Osteoid volume/Tissue volume) (OVX rats [3]; [6]): 0.690 ± 0.076%; ObS/BS (Osteoblast surface/Bone surface) (OVX rats [3]; [6]): 24.64 ± 2.70%; OcS/BS (Osteoclast surface/Bone surface) (OVX rats [3]; [6]): 11.69 ± 0.70%; Tb. N (Trabecular number) (OVX rats [3]; [6]): 2.54 ± 0.11 N per mm; Tb. Sp (Trabecular separation) (OVX rats [3]; [6]): 322 ± 18 µm; Tb. Th (Trabecular thickness) (OVX rats [3]; [6]): 79.2 ± 2.7 µm; BFR/BS (Bone formation rate/Bone surface) (OVX rats [3]; [7]): 0.285 ± 0.023 mm3 per mm2 per year; BRs.R (OVX rats [3]; [7]): 0.057 ± 0.006 mm2 per mm2 per year; BV/TV (Bone volume/Tissue volume) (OVX rats [3]; [7]): 20.1 ± 1.4%; ES/BS (Eroded surface/Bone surface) (OVX rats [3]; [7]): 39.7 ± 1.6%; MAR (Mineral apposition rate) (OVX rats [3]; [7]): 2.28 ± 0.08 µm per day; N.Ob/BS (Number of osteoblasts/Bone surface) (OVX rats [3]; [7]): 17.55 ± 1.43 N per mm; N.Oc/BS (Number of osteoclasts/Bone surface) (OVX rats [3]; [7]): 4.30 ± 0.27 N per mm; OV/TV (Osteoid volume/Tissue volume) (OVX rats [3]; [7]): 0.794 ± 0.085%; ObS/BS (Osteoblast surface/Bone surface) (OVX rats [3]; [7]): 25.14 ± 2.09%; OcS/BS (Osteoclast surface/Bone surface) (OVX rats [3]; [7]): 13.60 ± 0.69%; Tb. N (Trabecular number) (OVX rats [3]; [7]): 2.64 ± 0.14 N per mm; Tb. Sp (Trabecular separation) (OVX rats [3]; [7]): 315 ± 24 µm; Tb. Th (Trabecular thickness) (OVX rats [3]; [7]): 76.0 ± 3.1 µm
